Laboratory results from patent US20240287138A1, “CYCLIC PEPTIDES FOR INHIBITING TNF RECEPTOR 1 ACTIVITY” (Merck Sharp & Dohme LLC, priority 2023, published 2024).
Where two headings read alike, the source gives them in different places. Numbered stars: 1 amine (or outer) side, 2 acyl side, 3 side chain; on linkers, the order of the positions; unused ones are H or OH. Bridge positions count the residues as written; N and C are the ends. Square brackets hold non-standard residues; d marks the D form. Peptide text beside a SMILES is read from it. * marks the point of attachment. Trp(βS-Me,7-OMe) = COc1cccc2c([C@H](C)[C@H](N)C(=O)O)c[nH]c12; cBu(1-CO,cis-3-CH2NH) = O=C([C@H]1C[C@@H](CN[*:1])C1)[*:2]; Trp(4-Cl) = N[C@@H](Cc1c[nH]c2cccc(Cl)c12)C(=O)O; Trp(7-Cl) = N[C@@H](Cc1c[nH]c2c(Cl)cccc12)C(=O)O; Phe(4-CONH2) = NC(=O)c1ccc(C[C@H](N)C(=O)O)cc1; Phe(4-COOH) = N[C@@H](Cc1ccc(C(=O)O)cc1)C(=O)O; Trp(7-aza) = N[C@@H](Cc1c[nH]c2ncccc12)C(=O)O; X10 = O=C([C@H](Cc1ccnc2ccccc12)N[*:1])[*:2]; Phe(4-CH2NH2) = NCc1ccc(C[C@H](N)C(=O)O)cc1; X2 = C[C@@H]1CC[C@@H](C(=O)[*:2])N([*:1])C1; Pip(5R-OH) = O=C(O)[C@@H]1CC[C@@H](O)CN1; X13 = O=C([C@H]1CC[C@@H](N[*:1])C1)[*:2]; αMeW = C[C@](N)(Cc1c[nH]c2ccccc12)C(=O)O; X1 = O=C([C@@H]1CC[C@H](N[*:1])C1)[*:2]; X6 = O=C([C@@H](N[*:1])C1(O)CC1)[*:2]; Pip(4-aza) = O=C(O)[C@@H]1CNCCN1; 4Pal = N[C@@H](Cc1ccncc1)C(=O)O; NMeE = CN[C@@H](CCC(=O)O)C(=O)O; αMeS = C[C@](N)(CO)C(=O)O; Carboxymethyl = O=C(O)C*; Nle = CCCC[C@H](N)C(=O)O; Sar = CNCC(=O)O

Columns and labels:
[1] = biological target: T1, human TNFR1 extracellular domain (ECD) protein (Homo sapiens, UniProt P19438); test: SPR binding affinity to captured human TNFR1 ECD
T1 construct: HRV 3C protease cleavage site (C); 6His (C, cleaved yes); made in house; host or cells: Sf21 insect cells (baculovirus), secreted
T1 sequence (P19438 30-211): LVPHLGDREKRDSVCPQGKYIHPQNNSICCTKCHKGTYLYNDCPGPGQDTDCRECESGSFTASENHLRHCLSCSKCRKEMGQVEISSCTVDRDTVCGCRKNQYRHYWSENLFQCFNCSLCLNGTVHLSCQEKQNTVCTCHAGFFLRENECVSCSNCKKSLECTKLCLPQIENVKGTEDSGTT
How it was run: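 Read-out: kon, koff and derived affinity from SPR response units. Human TNFR1 and TNFR2 ECD, Avi-tag biotinylated with BirA, captured on a streptavidin surface; peptides injected under laminar flow in HEPES-saline with EDTA, P20 and 2% DMSO.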

[2] = biological target: T2, TNFα-induced NF-κB signal transduction pathway (TNFR1 signaling) in THP-1 cells (Homo sapiens, UniProt P19438); test: THP-1 Lucia NF-κB reporter cell assay, inhibition of TNFα-induced NF-κB signaling; type: cell-based
T2 sequence (P19438 30-455): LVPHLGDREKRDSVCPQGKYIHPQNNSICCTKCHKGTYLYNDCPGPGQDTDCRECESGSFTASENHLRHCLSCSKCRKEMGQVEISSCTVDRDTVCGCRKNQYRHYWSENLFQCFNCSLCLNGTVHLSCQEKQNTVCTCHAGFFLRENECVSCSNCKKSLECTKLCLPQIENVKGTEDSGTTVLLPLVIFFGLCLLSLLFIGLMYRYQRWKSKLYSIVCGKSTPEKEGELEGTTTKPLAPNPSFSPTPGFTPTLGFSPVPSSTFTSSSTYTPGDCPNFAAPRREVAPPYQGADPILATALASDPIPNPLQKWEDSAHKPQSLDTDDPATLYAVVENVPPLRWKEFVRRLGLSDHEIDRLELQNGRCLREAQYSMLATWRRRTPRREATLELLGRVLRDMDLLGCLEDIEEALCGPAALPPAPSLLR
How it was run: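 Read-out: secreted Lucia luciferase luminescence (QUANTI-Luc) from supernatant after 16-18 h, 37 °C, 10 ng/mL rhTNFα. Peptide pretreatment 1 h at 37 °C; 20,000 cells/well, selection antibiotics omitted. IC50 via 4-parameter logistic model against min/max controls.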

[3] = THP-1 NF-κB Lucia reporter cells, 10 ng/mL TNFα, 16-18 h, secreted luciferase; read-out: THP-1 IC50

Compound | Kd [1] [nM] | IC50 [2, 3] [nM] | IC50 ([2]; read-out: THP-1 IC50; THP-1 NF-κB Lucia reporter cells, 10 ng/mL TNFα, 16-18 h, secreted luciferase) [nM]
CCCC[C@@H]1NC(=O)[C@H]2CC[C@H](C2)NC(=O)[C@H]([C@@H](C)c2c[nH]c3c(OC)cccc23)NC(=O)CN(C)C(=O)[C@H](Cc2ccc(O)cc2)NC(=O)[C@H](Cc2ccc(C(N)=O)cc2)NC(=O)[C@](C)(CO)NC(=O)[C@H](Cc2c[nH]c3c(Cl)cccc23)NC(=O)[C@H](Cc2ccc(C(=O)O)cc2)NC(=O)[C@H](CC(N)=O)NC(=O)[C@H](CCC(=O)O)N(C)C(=O)[C@H](Cc2c[nH]c3ccccc23)NC(=O)[C@@H]2CC[C@@H](O)CN2C(=O)[C@H](Cc2ccncc2)NC1=O [SEQ ID NO. 267] (cyclo([4Pal][Pip(5R-OH)]W[NMeE]N[Phe(4-COOH)][Trp(7-Cl)][αMeS][Phe(4-CONH2)]Y[Sar][Trp(βS-Me,7-OMe)][X13][Nle])) | 0.14 | 1.7 | –
CCCC[C@@H]1NC(=O)[C@H]2C[C@@H](CNC(=O)[C@H]([C@@H](C)c3c[nH]c4c(OC)cccc34)NC(=O)CN(C)C(=O)[C@H](Cc3ccc(O)cc3)NC(=O)[C@H](Cc3ccc(C(=O)O)cc3)NC(=O)[C@](C)(CO)NC(=O)[C@H](Cc3c[nH]c4c(Cl)cccc34)NC(=O)[C@H](Cc3ccncc3)NC(=O)[C@H](CC(N)=O)NC(=O)[C@H](CCC(=O)O)N(C)C(=O)[C@H](Cc3c[nH]c4ccccc34)NC(=O)[C@@H]3CNCCN3C(=O)[C@H](Cc3ccncc3)NC1=O)C2 [SEQ ID NO. 268] (cyclo([4Pal][Trp(7-Cl)][αMeS][Phe(4-COOH)]Y[Sar][Trp(βS-Me,7-OMe)][cBu(1-CO,cis-3-CH2NH)][Nle][4Pal][Pip(4-aza)]W[NMeE]N)) | 0.27 | 2 | –
CCCC[C@@H]1NC(=O)CSC[C@@H](C(N)=O)NC(=O)[C@H]([C@@H](C)c2c[nH]c3c(OC)cccc23)NC(=O)CN(C)C(=O)[C@H](Cc2ccc(O)cc2)NC(=O)[C@H](Cc2ccc(C(=O)O)cc2)NC(=O)[C@](C)(CO)NC(=O)[C@H](Cc2c[nH]c3c(Cl)cccc23)NC(=O)[C@H](Cc2ccncc2)NC(=O)[C@H](CC(N)=O)NC(=O)[C@H](CCC(=O)O)N(C)C(=O)[C@H](Cc2c[nH]c3ccccc23)NC(=O)[C@@H]2CC[C@@H](C)CN2C(=O)[C@H](Cc2ccncc2)NC1=O [SEQ ID NO. 272] ({CH2CO}-[Nle][4Pal][X2]W[NMeE]N[4Pal][Trp(7-Cl)][αMeS][Phe(4-COOH)]Y[Sar][Trp(βS-Me,7-OMe)]C-NH2; thioether N-14) | 0.1 | 2.6 | –
C[C@@]1(CO)NC(=O)[C@H](Cc2c[nH]c3ncccc23)NC(=O)[C@H](Cc2ccncc2)NC(=O)[C@H](CC(N)=O)NC(=O)[C@H]2CCCN2C(=O)[C@H](Cc2ccnc3ccccc23)NC(=O)[C@H](CO)NC(=O)[C@H](Cc2ccncc2)NC(=O)[C@H](CCC(N)=O)NC(=O)CSC[C@@H](C(N)=O)NC(=O)[C@H](Cc2c[nH]c3cccc(Cl)c23)NC(=O)[C@@H]2CCCN2C(=O)[C@H](Cc2ccc(O)cc2)NC(=O)[C@H](Cc2ccc(C(=O)O)cc2)NC1=O [SEQ ID NO. 278] ({CH2CO}-Q[4Pal]S[X10][dP]N[4Pal][Trp(7-aza)][αMeS][Phe(4-COOH)]YP[Trp(4-Cl)]C-NH2; thioether N-14) | 12.8 | 54.5 | –
CCCC[C@@H]1NC(=O)CSC[C@@H](C(N)=O)NC(=O)[C@](C)(Cc2c[nH]c3ccccc23)NC(=O)CN(C)C(=O)[C@H](Cc2ccc(O)cc2)NC(=O)[C@H](Cc2ccc(C(=O)O)cc2)NC(=O)[C@](C)(CO)NC(=O)[C@H](Cc2c[nH]c3c(Cl)cccc23)NC(=O)[C@H](Cc2ccncc2)NC(=O)[C@H](CC(N)=O)NC(=O)[C@H](CCC(=O)O)N(C)C(=O)[C@H](Cc2c[nH]c3ncccc23)NC(=O)[C@H](C2(O)CC2)NC(=O)[C@H](Cc2ccncc2)NC1=O [SEQ ID NO. 281] ({CH2CO}-[Nle][4Pal][X6][Trp(7-aza)][NMeE]N[4Pal][Trp(7-Cl)][αMeS][Phe(4-COOH)]Y[Sar][αMeW]C-NH2; thioether N-14) | 0.5 | 8.4 | –
CCCC[C@@H]1NC(=O)CSC[C@@H](C(N)=O)NC(=O)[C@](C)(Cc2c[nH]c3ccccc23)NC(=O)CN(C)C(=O)[C@H](Cc2ccc(O)cc2)NC(=O)[C@H](Cc2ccc(OCC(=O)O)cc2)NC(=O)[C@](C)(CO)NC(=O)[C@H](Cc2c[nH]c3c(Cl)cccc23)NC(=O)[C@H](Cc2ccncc2)NC(=O)[C@H](CC(N)=O)NC(=O)[C@H](CCC(=O)O)N(C)C(=O)[C@H](Cc2c[nH]c3ncccc23)NC(=O)[C@H](CO)NC(=O)[C@H](Cc2ccc(CN)cc2)NC1=O [SEQ ID NO. 283] ({CH2CO}-[Nle][Phe(4-CH2NH2)]S[Trp(7-aza)][NMeE]N[4Pal][Trp(7-Cl)][αMeS]Y(Carboxymethyl)Y[Sar][αMeW]C-NH2; thioether N-14) | 0.5 | 6.4 | –
CCCC[C@@H]1NC(=O)[C@@H]2CC[C@@H](C2)NC(=O)[C@H]([C@@H](C)c2c[nH]c3c(OC)cccc23)NC(=O)CN(C)C(=O)[C@H](Cc2ccc(O)cc2)NC(=O)[C@H](Cc2ccc(C(=O)O)cc2)NC(=O)[C@](C)(CO)NC(=O)[C@H](Cc2c[nH]c3c(Cl)cccc23)NC(=O)[C@H](Cc2ccc(C(=O)O)cc2)NC(=O)[C@H](CC(N)=O)NC(=O)[C@H](CCC(=O)O)N(C)C(=O)[C@H](Cc2c[nH]c3ccccc23)NC(=O)[C@@H]2CNCCN2C(=O)[C@H](Cc2ccncc2)NC1=O [SEQ ID NO. 288] (cyclo([4Pal][Pip(4-aza)]W[NMeE]N[Phe(4-COOH)][Trp(7-Cl)][αMeS][Phe(4-COOH)]Y[Sar][Trp(βS-Me,7-OMe)][X1][Nle])) | 0.1 | 4.2 | –
CN1CC(=O)N[C@@H](CC(N)=O)C(=O)N[C@@H](Cc2ccc(O)cc2)C(=O)N[C@@H](Cc2c[nH]c3ccccc23)C(=O)N[C@@H](CO)C(=O)N[C@@H](Cc2ccc(O)cc2)C(=O)N[C@@H](Cc2ccc(O)cc2)C(=O)N(C)CC(=O)N[C@@H](Cc2c[nH]c3ccccc23)C(=O)N[C@H](C(=O)NCC(=O)N[C@@H](CCC(=O)O)C(=O)N[C@@H](CCC(=O)O)C(N)=O)CSCC(=O)N[C@@H](Cc2ccccc2)C(=O)N[C@@H](Cc2ccc(O)cc2)C(=O)N[C@@H](CO)C(=O)N[C@@H](Cc2c[nH]c3ccccc23)C1=O [SEQ ID NO. 289] ({CH2CO}-FYSW[Sar]NYWSYY[Sar]WCGEE-NH2; thioether N-14) | 7.43 | – | 36.4
